Molecules are shown by their SMILES. Converted amounts (≈) assume the structure as drawn. Like-named read-outs stand apart in the source and are kept apart here.

This note sets out measurements from US6046238A, “Method for treating or preventing the spread of acne vulgaris” (TriStrata, Inc., priority 1999, dated 2000).

A short description of assay [1]: treatment of oral infections. In kind it is in vivo, human. As to conditions: 2% composition diluted to 0.1%; oral rinse twice daily. Here is the method: Compositions for treatment of oral infections may contain an aryl 2-acetoxyethanoic acid as the only active ingredient. In this case a phenyl 2-acetoxyethanoic acid or diphenyl 2-acetoxyethanoic acid 2% composition was formulated by dissolving the active ingredient 2 g in ethanol 78 ml and propylene glycol 20 ml. Before use, this composition was diluted to 0.1% with water by mixing one part of the composition with 19 parts of water. The treatment involves oral rinse, wash and gargle by keeping the diluted composition inside the oral cavity for a few minutes, and then spit out. Such procedure may be repeated twice daily for several days until the infection is eradicated usually within 5-7 days.

The subject of assay [2] is Micrococcus sedentarius. Put plainly: MIC Agar Dilution Test, Micrococcus sedentarius. In kind it is cell-based. The conditions noted are these: Kytococcus sedentarius, M. sedentarius. The text has this:
(§1) The following strains of microorganisms were used in Minimum Inhibitory Concentration (MIC) tests for phenyl 2-acetoxyethanoic acid in this example and for benzoyl peroxide, chlorhexidine gluconate and triclosan in the following examples. In total, five strains were used for S. aureus, five strains were used for S. epidermidis, two strains were used for M. sedentarius, three strains were used for M. luteus, two strains were used for B. epidermis, three strains were used for C. minutissium, one strain was used for S. marcescens, three strains were used for P. aeruginosa, four strains were used for E. coli, and thirty-two strains were used for P. acnes.
(§2) Antimicrobial effects were determined based on MIC Agar Dilution Test utilizing Trypticase Soy Agar II (BBL) incorporation plates with and without 10% intralipid (Kabi Pharmacia Inc.). Initially, phenyl 2-acetoxyethanoic acid was prepared as a 2 mg/ml (0.2%) solution in water. This solution with serial dilution was incorporated into the test agar plates. The MIC test gave similar results when the same species but a different strain was used.
(§3) Under the same test conditions described in Example 1, benzoyl peroxide was prepared as a 2.5 mg/ml (0.25%) solution in water. This solution with serial dilution was incorporated into the test agar plates. Typical test results are shown as follows.
(§4) Under the same test conditions described in Example 1, chlorhexidine gluconate was prepared as a 2 mg/ml (0.2%) solution in water. This solution with serial dilution was incorporated into the test agar plates. Typical test results are shown as follows.
(§5) Under the same test conditions described in Example 1, triclosan was prepared as a 10 mg/ml (1%) solution in water. This solution with serial dilution was incorporated into the test agar plates. Typical test results are shown as follows.
(§6) Ten different species of bacteria were used in Minimum Inhibitory Concentration (MIC) tests. The bacteria include S. aureus, S. epidermidis,M. sedentarius, M. luteus, B. epidermis, C. minutissium, S. marcescens, P. aeruginosa, E. coli, and P. acnes. In addition various sources and strains of these bacteria were also included in the tests, and up to 32 different strains of P. acnes were used.
(§7) The test substance selected from phenyl 2-acetoxyethanoic acid, benzoyl peroxide, chlorhexidine gluconate and triclosan was dissolved in water, and the solution with serial dilution was incorporated into the test agar plates. The plates containing different concentrations of test substance were inoculated with a strain of bacterium. MIC is defined as the lowest concentration of the test substance in the plate in which there is no growth of the microorganism.
For orientation: In agar dilution the substance is mixed into plates at graded concentrations.

A short description of assay [3]: topical treatment of nail infections. It is filed as in vivo, human. As to conditions: non-synergistic composition, twice daily. The text has this: The participating subjects in the present study were instructed to apply twice daily the composition containing phenyl 2-acetoxyethanoic acid or diphenyl 2-acetoxyethanoic acid with or without clotrimazole as an additional antimicrobial agent.
In order to determine the antimicrobial effect of an aryl 2-acetoxyethanoicacid, a standard test method of Minimum Inhibitory Concentration (MIC) against the growth of 10 bacteria was used. To determine a prophylactic effect against the development of, as well as a topical effect in the treatment of, body foul door, eleven human subjects participated in this study. […] Scientific and test results are overviewed as follows.

A short description of assay [4]: reversal of corticosteroid unresponsiveness in psoriasis. In kind it is in vivo, human. As to conditions: added once daily to corticosteroid twice daily; seven patients. Here is the method: To determine the therapeutic responsive effect of an aryl 2-acetoxyethanoicacid against psoriasis seven patient participated in this study. A test composition was prepared by dissolving 1 g phenyl 2-acetoxyethanoic acid or diphenyl 2-acetoxyethanoic acid in 2 ml ethanol. The solution thus obtained was mixed with 60 g petrolatum and 37 g mineral oil. The anhydrous ointment thus formulated was packaged in one-ounce jars.
When the drug unresponsiveness to a corticosteroid occurred, the participating patients were instructed to apply in addition the test composition once daily to the lesions on the left side of the body only. Topical applications of the corticosteroid were continued twice daily to both sides of the body. […] While psoriatic lesions on the right side of the body remained unresponsive to the topical corticosteroid, the lesions on the left side started to clear after 3 to 4 weeks of additional topical application with the composition containing an aryl 2-acetoxyethanoic acid.
At this time the patients were instructed to shift the additional topical application to the lesions on the right side instead of the left side of the body. The psoriatic lesions on the right side of the body began to clear after 3 to 4 weeks of additional topical application with the composition containing aryl 2-acetoxyethanoic acid.

The subject of assay [5] is Micrococcus luteus. As to the kind of experiment: MIC Agar Dilution Test, Micrococcus luteus. In kind it is cell-based. The conditions noted are these: M. luteus.
From the text: as §1, §2, §3, §4, §5, §6, §7

The subject of assay [6] is ten different species of bacteria. As to the kind of experiment: MIC Agar Dilution Test, panel of ten bacteria. The conditions noted are these: with or without 10% lipid materials. In kind it is cell-based.
From the text: as §1, §2, §3, §4, §5
In order to determine the antimicrobial effect of an aryl 2-acetoxyethanoicacid, a standard test method of Minimum Inhibitory Concentration (MIC) against the growth of 10 bacteria was used. To determine a prophylactic effect against the development of, as well as a topical effect in the treatment of, body foul door, eleven human subjects participated in this study. More than twenty human subjects participated in a study to determine whether the compositions containing an aryl 2-acetoxyethanoic acid were therapeutically effective for topical treatment of folliculitis and other skin lesions, nail infections and mucosal infections caused by microbial infections. Scientific and test results are overviewed as follows.
as §6, §7

Assay [7] relates to Pseudomonas aeruginosa. Put plainly: MIC Agar Dilution Test, Pseudomonas aeruginosa. The conditions noted are these: P. aeruginosa. It is filed as cell-based.
From the text: as §1, §2, §3, §4, §5, §6, §7

The subject of assay [8] is Brevibacterium epidermis. Put plainly: MIC Agar Dilution Test, Brevibacterium epidermis. In kind it is cell-based. As to conditions: B. epidermis.
From the text: as §1, §2, §3, §4, §5, §6, §7

Assay [9] concerns Staphylococcus epidermidis. As to the kind of experiment: MIC Agar Dilution Test, Staphylococcus epidermidis. It is filed as cell-based. The conditions noted are these: S. epidermidis.
From the text: as §1, §2, §3, §4, §5, §6, §7

Assay [10] has as its system Serratia marcescens. As to the kind of experiment: MIC Agar Dilution Test, Serratia marcescens. It is filed as cell-based. As to conditions: S. marcescens.
From the text: as §1, §2, §3, §4, §5, §6, §7

Assay [11] relates to Propionibacterium acnes. Put plainly: MIC Agar Dilution Test, Propionibacterium acnes. It is filed as cell-based. As to conditions: for MIC: Cutibacterium acnes.
From the text: as §1, §2, §3, §4, §5, §6, §7

In assay [12] the test system is Staphylococcus aureus. Put plainly: MIC Agar Dilution Test, Staphylococcus aureus. It is filed as cell-based. The conditions noted are these: S. aureus.
From the text: as §1, §2, §3, §4, §5, §6, §7

Setting [13] is: 10% intralipid, read-out: MIC Lipid.
Where [14] appears, read: no lipid, read-out: MIC No Lipid.

Consider `CC(=O)OC(C(=O)O)c1ccccc1` (stereo not drawn) [phenyl 2-acetoxyethanoic acid], for which the “time within which oral infection is usually eradicated” value in assay [1] fell in the range of 5 to 7 days. Besides, the MIC in assay [2] (setting [13]) amounted to 500 µg/mL (≈ 2.57 mM); in assay [2] (setting [14]), 500 µg/mL (≈ 2.57 mM); in assay [5] (setting [13]) it was 1000 µg/mL (≈ 5.15 mM); in assay [5] (setting [14]) it was 1000 µg/mL (≈ 5.15 mM); in [7] (setting [13]), 1000 µg/mL (≈ 5.15 mM); in [7] (setting [14]) it was 1000 µg/mL (≈ 5.15 mM). Also, the MIC in assay [8] (setting [13]), in [8] (setting [14]), in [9] (setting [13]), in assay [9] (setting [14]), in assay [10] (setting [13]) and in assay [10] (setting [14]) was 1000 µg/mL (≈ 5.15 mM) each time. For the same compound, the MIC in [11] (P. acnes, 10% intralipid, read-out: MIC Lipid) came to 250 µg/mL (≈ 1.29 mM); in [11] (P. acnes, no lipid, read-out: MIC No Lipid), 250 µg/mL (≈ 1.29 mM); in [11] (even in the presence of 10% lipid materials, read-out: concentration specifically effective against the growth of P. acnes) it was 250 µg/mL; in assay [11] (in the presence of 10% lipid materials, read-out: concentration effective against P. acnes), 250 µg/mL; in assay [12] (setting [13]), 500 µg/mL (≈ 2.57 mM); in assay [12] (setting [14]) it was 500 µg/mL (≈ 2.57 mM). In addition, the “disappearance of nail infections” value in assay [3] is “usually disappeared within one to several months”. In addition, the “onset of improvement of psoriatic lesions, left side” value in [4] is reported as “began to improve after one week”. Moreover, the “inhibitory effects against the growth of all ten bacteria” value in [6] is reported as “had inhibitory effects against all of the above bacteria”; in assay [6] (listed as Phenyl 2-acetoxyethanoic acid), “showed inhibitory effects against the growth of all ten bacteria tested”. Besides, the “inhibitory effect against P. acnes, compared” value in assay [11] (with or without lipid materials, same test conditions as comparators) is “most active and effective compound against P. acnes”.
